According to ChEMBL document CHEMBL4334471, “Discovery of 1,8-disubstituted-[1,2,3]triazolo[4,5-c]quinoline derivatives as a new class of Hippo signaling pathway inhibitors” (Bioorg Med Chem Lett, 2019):

What was measured:
[1] = test system: Tyrosine-protein kinase Blk (Homo sapiens), P51451 [UNDEFINED MUTATION]; test: Inhibition of recombinant full length human BLK M287V mutant assessed as residual activity at 10 uM using poly(Glu, Tyr) 4:1 as substrate incubated for 40 mins in presence of [gamma-33ATP] by scintillation counting based radiometry assay relative to control
[2] = molecular target: Fibroblast growth factor receptor 4 (Homo sapiens) (UniProt P22455); test: Inhibition of recombinant human FGFR4 (442 to 755 residues) assessed as residual activity at 10 uM using poly(Glu, Tyr) 4:1 as substrate at 40 mins in presence of [gamma-33ATP] by scintillation counting based radiometry assay relative to control
[3] = molecular target: Macrophage colony-stimulating factor 1 receptor (Homo sapiens) (UniProt P07333); test: Inhibition of recombinant human FMS (538 to end residues) assessed as residual activity at 10 uM using KKKSPGEYVNIEF as substrate at 40 mins in presence of [gamma-33ATP] by scintillation counting based radiometry assay relative to control
Sequence of Macrophage colony-stimulating factor 1 receptor (Homo sapiens) (P07333 whole entry): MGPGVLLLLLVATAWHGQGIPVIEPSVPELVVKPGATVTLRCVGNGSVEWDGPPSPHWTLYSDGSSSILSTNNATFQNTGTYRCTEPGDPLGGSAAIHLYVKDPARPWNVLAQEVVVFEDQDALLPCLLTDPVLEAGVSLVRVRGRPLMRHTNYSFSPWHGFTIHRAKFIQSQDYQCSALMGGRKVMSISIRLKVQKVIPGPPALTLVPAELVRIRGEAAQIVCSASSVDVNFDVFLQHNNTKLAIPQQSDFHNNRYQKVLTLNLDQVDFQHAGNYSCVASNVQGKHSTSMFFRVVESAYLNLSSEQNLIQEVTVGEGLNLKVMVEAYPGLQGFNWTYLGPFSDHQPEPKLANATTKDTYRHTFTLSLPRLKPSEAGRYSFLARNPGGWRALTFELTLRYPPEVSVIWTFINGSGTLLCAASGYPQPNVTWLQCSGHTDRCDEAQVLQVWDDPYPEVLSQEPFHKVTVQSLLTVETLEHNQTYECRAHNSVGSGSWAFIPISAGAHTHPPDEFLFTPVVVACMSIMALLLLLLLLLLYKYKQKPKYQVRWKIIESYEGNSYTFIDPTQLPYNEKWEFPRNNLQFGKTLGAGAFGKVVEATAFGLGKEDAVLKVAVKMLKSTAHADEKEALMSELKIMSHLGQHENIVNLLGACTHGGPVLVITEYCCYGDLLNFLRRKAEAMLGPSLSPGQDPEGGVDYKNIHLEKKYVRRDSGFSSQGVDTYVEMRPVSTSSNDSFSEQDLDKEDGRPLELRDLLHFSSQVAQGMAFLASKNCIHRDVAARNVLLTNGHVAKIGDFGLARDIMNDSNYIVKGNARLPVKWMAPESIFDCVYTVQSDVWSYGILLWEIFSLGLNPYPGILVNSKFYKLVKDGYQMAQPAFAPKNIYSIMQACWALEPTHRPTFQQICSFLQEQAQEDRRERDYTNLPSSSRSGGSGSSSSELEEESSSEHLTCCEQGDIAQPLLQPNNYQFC

[4] = molecular target: Mitogen-activated protein kinase 11 (Homo sapiens) (UniProt Q15759); test: Inhibition of recombinant human full length SAPK2b assessed as residual activity at 10 uM using myelin basic protein as substrate incubated for 40 mins in presence of [gamma33P]ATP by scintillation counting based radiometry assay relative to control
[5] = molecular target: G protein-coupled receptor kinase 3 (Homo sapiens) (UniProt P35626); test: Inhibition of recombinant full length human GRK3 assessed as residual activity at 10 uM using casein as substrate at 40 mins in presence of [gamma-33ATP] by scintillation counting based radiometry assay relative to control
[6] = molecular target: SRSF protein kinase 3 (Homo sapiens) (UniProt Q9UPE1); test: Inhibition of recombinant full-length human MSSK1 assessed as residual activity at 10 uM using ERMRPRKRQGSVRRRV as substrate measured after 40 mins in presence of [gamma33P]ATP by scintillation counting based radiometry assay relative to control
[7] = test system: Epidermal growth factor receptor (Homo sapiens), P00533 [L858R,T790M]; test: Inhibition of recombinant human EGFR T790M/L858R mutant (696 to end residues) assessed as residual activity at 10 uM using poly(Glu, Tyr) 4:1 as substrate at 40 mins in presence of [gamma-33ATP] by scintillation counting based radiometry assay relative to control
[8] = molecular target: Serine/threonine-protein kinase 10 (Homo sapiens) (UniProt O94804); test: Inhibition of recombinant human LOK (1 to 348 residues) assessed as residual activity at 10 uM using RLGRDKYKTLRQI as substrate after 40 mins in presence of [gamma-33ATP] by scintillation counting based radiometry assay relative to control
Sequence of Serine/threonine-protein kinase 10 (Homo sapiens) (O94804 whole entry, looked up, the tested form may be a part): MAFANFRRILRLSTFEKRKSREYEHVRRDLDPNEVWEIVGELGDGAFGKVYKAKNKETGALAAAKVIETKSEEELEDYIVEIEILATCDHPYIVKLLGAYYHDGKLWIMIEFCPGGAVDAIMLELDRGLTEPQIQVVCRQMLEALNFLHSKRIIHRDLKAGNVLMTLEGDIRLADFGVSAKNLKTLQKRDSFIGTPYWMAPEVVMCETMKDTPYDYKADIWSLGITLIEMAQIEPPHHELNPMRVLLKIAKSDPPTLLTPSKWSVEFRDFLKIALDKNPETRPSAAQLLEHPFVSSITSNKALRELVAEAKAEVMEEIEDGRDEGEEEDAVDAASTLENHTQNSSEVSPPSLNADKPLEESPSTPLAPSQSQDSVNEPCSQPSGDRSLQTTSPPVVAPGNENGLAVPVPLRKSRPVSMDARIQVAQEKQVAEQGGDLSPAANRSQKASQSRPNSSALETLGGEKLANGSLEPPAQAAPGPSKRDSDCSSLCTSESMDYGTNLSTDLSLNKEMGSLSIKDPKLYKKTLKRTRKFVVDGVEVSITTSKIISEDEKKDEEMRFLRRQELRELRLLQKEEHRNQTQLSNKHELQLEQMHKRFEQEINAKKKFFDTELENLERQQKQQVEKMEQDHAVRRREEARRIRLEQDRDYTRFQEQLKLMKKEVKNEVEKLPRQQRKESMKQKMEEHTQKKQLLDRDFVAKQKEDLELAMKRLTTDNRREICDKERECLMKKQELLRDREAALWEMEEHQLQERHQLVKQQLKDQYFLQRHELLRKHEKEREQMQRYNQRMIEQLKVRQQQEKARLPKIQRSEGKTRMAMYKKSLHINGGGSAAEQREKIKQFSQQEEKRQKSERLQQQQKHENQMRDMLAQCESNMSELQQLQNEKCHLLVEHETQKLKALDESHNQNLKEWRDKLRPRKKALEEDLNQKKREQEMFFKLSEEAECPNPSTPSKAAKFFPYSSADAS

[9] = organism: Homo sapiens; test: Inhibition of recombinant human DDR1 V833L mutant (492 to end residues) assessed as residual activity at 10 uM using KKKSPGEYVNIEF as substrate at 40 mins in presence of [gamma-33ATP] by scintillation counting based radiometry assay relative to control
[10] = molecular target: Interferon-induced, double-stranded RNA-activated protein kinase (Homo sapiens) (UniProt P19525); test: Inhibition of recombinant human PKR (252 to end residues) assessed as residual activity at 10 uM using RSRSRSRSRSRSRSR as substrate incubated for 40 mins in presence of [gamma33P]ATP by scintillation counting based radiometry assay relative to control
[11] = molecular target: Dual specificity tyrosine-phosphorylation-regulated kinase 1B (Homo sapiens) (UniProt Q9Y463); test: Inhibition of recombinant human DYRK1B assessed as residual activity at 10 uM using RRRFRPASPLRGPP as substrate at 40 mins in presence of [gamma-33ATP] by scintillation counting based radiometry assay relative to control
[12] = molecular target: Serine/threonine-protein kinase 32A (Homo sapiens) (UniProt Q8WU08); test: Inhibition of recombinant human full length STK32A assessed as residual activity at 10 uM using casein as substrate incubated for 40 mins in presence of [gamma33P]ATP by scintillation counting based radiometry assay relative to control
[13] = molecular target: Casein kinase I isoform epsilon (Homo sapiens) (UniProt P49674); test: Inhibition of recombinant human CK1epsilon assessed as residual activity at 10 uM using KRRRALS(p)VASLPGL as substrate incubated for 120 mins in presence of [gamma-33ATP] by scintillation counting based radiometry assay relative to control
[14] = molecular target: Tyrosine-protein kinase Lck (Homo sapiens) (UniProt P06239); test: Inhibition of recombinant full length human LCK activated assessed as residual activity at 10 uM using KVEKIGEGTYGVVYK as substrate after 40 mins in presence of [gamma-33ATP] by scintillation counting based radiometry assay relative to control
[15] = molecular target: Transient receptor potential cation channel subfamily M member 7 (Homo sapiens) (UniProt Q96QT4); test: Inhibition of recombinant human CHAK1 (1180 to end residues) assessed as residual activity at 10 uM using myelin basic protein as substrate incubated for 40 mins in presence of [gamma-33ATP] by scintillation counting based radiometry assay relative to control
Sequence of Transient receptor potential cation channel subfamily M member 7 (Homo sapiens) (Q96QT4 whole entry, the tested form may be a part): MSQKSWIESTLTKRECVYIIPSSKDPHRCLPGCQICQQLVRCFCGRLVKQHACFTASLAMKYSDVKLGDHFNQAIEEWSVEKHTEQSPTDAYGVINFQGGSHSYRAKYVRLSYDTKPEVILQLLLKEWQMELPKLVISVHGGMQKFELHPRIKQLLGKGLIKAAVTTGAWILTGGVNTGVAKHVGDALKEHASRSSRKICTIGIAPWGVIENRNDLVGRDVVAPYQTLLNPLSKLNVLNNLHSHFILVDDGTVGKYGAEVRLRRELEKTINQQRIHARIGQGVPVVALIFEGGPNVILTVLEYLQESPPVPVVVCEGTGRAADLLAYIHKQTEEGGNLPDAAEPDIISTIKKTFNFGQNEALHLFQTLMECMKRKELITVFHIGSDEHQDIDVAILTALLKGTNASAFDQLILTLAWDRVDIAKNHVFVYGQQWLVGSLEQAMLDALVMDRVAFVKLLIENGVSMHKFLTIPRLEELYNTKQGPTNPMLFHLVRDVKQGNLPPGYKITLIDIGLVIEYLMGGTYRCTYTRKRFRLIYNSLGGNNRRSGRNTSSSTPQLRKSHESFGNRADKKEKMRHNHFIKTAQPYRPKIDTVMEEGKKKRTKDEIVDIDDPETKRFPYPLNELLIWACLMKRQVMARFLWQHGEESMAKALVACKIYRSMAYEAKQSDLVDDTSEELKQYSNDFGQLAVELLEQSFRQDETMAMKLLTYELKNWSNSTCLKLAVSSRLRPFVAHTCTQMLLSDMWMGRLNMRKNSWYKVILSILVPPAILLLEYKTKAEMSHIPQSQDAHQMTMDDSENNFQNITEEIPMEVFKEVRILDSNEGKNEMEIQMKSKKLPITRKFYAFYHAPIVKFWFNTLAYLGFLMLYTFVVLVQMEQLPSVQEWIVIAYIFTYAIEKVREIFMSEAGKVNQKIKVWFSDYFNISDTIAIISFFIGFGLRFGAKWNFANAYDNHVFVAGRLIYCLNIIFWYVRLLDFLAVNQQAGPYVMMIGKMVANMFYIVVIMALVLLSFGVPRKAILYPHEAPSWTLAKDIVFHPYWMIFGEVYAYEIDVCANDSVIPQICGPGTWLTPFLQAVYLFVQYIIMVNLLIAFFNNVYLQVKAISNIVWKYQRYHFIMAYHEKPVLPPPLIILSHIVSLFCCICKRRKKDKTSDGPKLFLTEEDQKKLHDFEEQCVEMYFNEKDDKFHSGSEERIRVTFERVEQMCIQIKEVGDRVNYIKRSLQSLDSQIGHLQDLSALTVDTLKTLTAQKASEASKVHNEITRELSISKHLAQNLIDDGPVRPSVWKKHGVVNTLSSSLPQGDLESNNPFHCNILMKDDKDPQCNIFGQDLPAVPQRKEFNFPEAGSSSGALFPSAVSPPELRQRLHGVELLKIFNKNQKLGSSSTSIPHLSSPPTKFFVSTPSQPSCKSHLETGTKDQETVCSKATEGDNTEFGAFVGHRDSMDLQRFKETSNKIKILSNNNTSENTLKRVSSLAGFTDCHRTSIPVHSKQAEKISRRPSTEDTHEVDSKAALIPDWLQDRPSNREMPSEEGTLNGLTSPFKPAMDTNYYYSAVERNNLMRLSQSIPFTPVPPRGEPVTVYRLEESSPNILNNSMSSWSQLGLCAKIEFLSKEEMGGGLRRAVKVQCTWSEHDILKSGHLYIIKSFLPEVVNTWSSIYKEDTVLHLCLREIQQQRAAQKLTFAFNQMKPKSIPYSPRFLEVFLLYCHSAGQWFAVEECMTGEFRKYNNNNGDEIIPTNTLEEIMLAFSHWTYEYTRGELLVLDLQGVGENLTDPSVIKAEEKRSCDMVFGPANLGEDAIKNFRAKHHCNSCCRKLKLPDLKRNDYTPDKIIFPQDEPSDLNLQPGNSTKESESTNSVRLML

[16] = molecular target: Serine/threonine-protein kinase SIK3 (Homo sapiens) (UniProt Q9Y2K2); test: Inhibition of recombinant human SIK3 (1 to 307 residues) assessed as residual activity at 10 uM using KKKVSRSGLYRSPSMPENLNRPR as substrate incubated for 40 mins in presence of [gamma33P]ATP by scintillation counting based radiometry assay relative to control
Sequence of Serine/threonine-protein kinase SIK3 (Homo sapiens) (Q9Y2K2 whole entry, looked up, the tested form may be a part): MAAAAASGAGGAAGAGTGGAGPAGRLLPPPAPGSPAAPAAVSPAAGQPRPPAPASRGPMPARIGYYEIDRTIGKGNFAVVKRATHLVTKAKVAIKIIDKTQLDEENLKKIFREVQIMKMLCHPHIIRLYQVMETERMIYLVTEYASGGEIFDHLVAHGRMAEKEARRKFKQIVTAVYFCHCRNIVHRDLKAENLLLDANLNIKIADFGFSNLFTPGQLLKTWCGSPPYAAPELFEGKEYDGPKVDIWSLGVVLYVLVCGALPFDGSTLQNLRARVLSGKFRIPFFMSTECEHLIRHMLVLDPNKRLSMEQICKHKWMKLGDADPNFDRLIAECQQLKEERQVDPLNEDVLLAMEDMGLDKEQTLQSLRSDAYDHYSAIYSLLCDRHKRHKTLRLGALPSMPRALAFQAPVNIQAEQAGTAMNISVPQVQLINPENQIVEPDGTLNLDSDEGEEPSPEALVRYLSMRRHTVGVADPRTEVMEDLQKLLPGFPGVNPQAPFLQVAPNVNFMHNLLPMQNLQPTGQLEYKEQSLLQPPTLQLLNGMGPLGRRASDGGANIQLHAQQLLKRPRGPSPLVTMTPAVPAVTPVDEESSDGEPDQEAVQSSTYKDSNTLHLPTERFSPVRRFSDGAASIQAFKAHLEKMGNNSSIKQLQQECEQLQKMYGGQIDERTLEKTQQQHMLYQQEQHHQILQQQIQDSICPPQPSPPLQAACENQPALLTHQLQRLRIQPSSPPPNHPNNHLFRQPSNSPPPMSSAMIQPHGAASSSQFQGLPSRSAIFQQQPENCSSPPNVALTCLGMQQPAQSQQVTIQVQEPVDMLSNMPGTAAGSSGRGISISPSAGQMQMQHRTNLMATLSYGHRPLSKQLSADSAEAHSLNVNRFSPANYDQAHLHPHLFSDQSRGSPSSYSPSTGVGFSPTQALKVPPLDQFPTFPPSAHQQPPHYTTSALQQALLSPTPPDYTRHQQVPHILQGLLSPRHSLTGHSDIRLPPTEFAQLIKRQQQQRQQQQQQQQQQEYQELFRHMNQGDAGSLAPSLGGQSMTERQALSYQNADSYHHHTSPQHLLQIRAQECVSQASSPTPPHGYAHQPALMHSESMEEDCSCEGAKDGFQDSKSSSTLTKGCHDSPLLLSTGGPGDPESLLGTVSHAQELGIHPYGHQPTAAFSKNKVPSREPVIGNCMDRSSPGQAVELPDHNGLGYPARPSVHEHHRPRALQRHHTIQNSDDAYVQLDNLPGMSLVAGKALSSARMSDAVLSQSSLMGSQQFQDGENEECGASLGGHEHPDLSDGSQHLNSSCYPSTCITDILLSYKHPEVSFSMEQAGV

[17] = molecular target: CDK9/cyclin T1 (Homo sapiens) (UniProt O60563+P50750); test: Inhibition of recombinant full length human CDK9/cyclinT1 assessed as residual activity at 10 uM using KTFCGTPEYLAPE as substrate incubated for 40 mins in presence of [gamma-33ATP] by scintillation counting based radiometry assay relative to control; format: protein-complex assay
[18] = molecular target: Calcium/calmodulin-dependent protein kinase kinase 1 (Homo sapiens) (UniProt Q8N5S9); test: Inhibition of recombinant full length human CaMKK1 assessed as residual activity at 10 uM using […] incubated for 40 mins in presence of [gamma-33ATP] by scintillation counting based radiometry assay relative to control
[19] = molecular target: BMP-2-inducible protein kinase (Homo sapiens) (UniProt Q9NSY1); test: Inhibition of recombinant human BIKe assessed as residual activity at 10 uM using peptide as substrate incubated for 120 mins in presence of [gamma-33ATP] by scintillation counting based radiometry assay relative to control
[20] = molecular target: DNA-dependent protein kinase catalytic subunit (Homo sapiens) (UniProt P78527); test: Inhibition of human DNA-PK assessed as residual activity at 10 uM using GST-cMyc-p53 as substrate measured after 40 mins by fluorescence assay relative to control
[21] = molecular target: Dual specificity mitogen-activated protein kinase kinase 3 (Homo sapiens) (UniProt P46734); test: Inhibition of recombinant human MKK3 assessed as residual activity at 10 uM by scintillation counting based radiometry assay relative to control

Structure (SMILES): C[C@@H](c1ccccc1)n1nnc2cnc3ccc(-c4cnc5[nH]ccc5c4)cc3c21
- Activity [1]: 8%
- Activity [2]: 68%
- Activity [3]: 21%
- Activity [4]: 93%
- Activity [5]: 110%
- Activity [6]: 69%
- Activity [7]: 57%
- Activity [8]: 54%
- Activity [9]: 3%
- Activity [10]: 81%
- Activity [11]: 83%
- Activity [12]: 95%
- Activity [13]: 32%
- Activity [14]: 4%
- Activity [15]: 66%
- Activity [16]: 20%
- Activity [17]: 80%
- Activity [18]: 67%
- Activity [19]: 54%
- Activity [20]: 4%
- Activity [21]: 115%
